Experimental data reported in patent US12643871B2, “Aryl formamide compound containing chiral sulfur oxide or salt thereof, preparation method, herbicidal composition and use thereof” (Qingdao Kingagroot Chemical Compound Co., Ltd., priority 2019, dated 2026).

Tests used:
Assay in all cases: Weeding effect in post-emergence stage
Assay type in all cases: in vivo
Settings in all cases: 250 g/ha; 2 leaf stage; 15 days after application; fresh weight control rate
Amaranthus retroflexus = tested on: Amaranthus retroflexus
Source text: (§1) The activity level criteria for harmful plant damage (i.e., growth control rate) are as follows: • Level 5: growth control rate is above 85%; • Level 4: growth control rate is greater than or equal to 60% and less than 85%; • Level 3: growth control rate is greater than or equal to 40% and less than 60%; • Level 2: growth control rate is greater than or equal to 20% and less than 40%; • Level 1: growth control rate is greater than or equal to 5% and less than 20%; • Level 0: growth control rate is less than 5%.
(§2) The above growth control rates are fresh weight control rates.
(§3) Experiment on weeding effect in post-emergence stage: monocotyledonous and dicotyledonous weed seeds (Descurainia sophia, Capsella bursa-pastoris, Galium aparine, Stellaria media, Lithospermum arvense, Rorippa indica, Alopecurus aequalis, Beckmannia syzigachne, Sclerochloa dura, Phleum paniculatum, Bromus japonicus, Aegilops tauschii, Phalaris arundinacea, Amaranthus retroflexus, Chenopodiaceae, Commelina communis, Sonchus arvensis, convolvulus arvensis, Cirsium setosum, Solanum nigrum, Acalypha australis, Digitaria sanguinalis, Echinochloa crusgalli, Setaria viridis, Setaria glauca, Leptochloa chinensis, Monochoria vaginalis, Sagittaria trifolia, Scirpus juncoides, Cyperus rotundus, Cyperus iria, Cyperus difformis, Fimbristylis, Portulaca oleracea, Xanthium sibiricum, Pharbitis nil) and major crop seeds (wheat, corn, rice, soybean, cotton, oilseed rape, millet, sorghum, potato, sesame, ricinus) were placed in plastic pots filled with soil, then covered with 0.5-2 cm of soil, allowed to grow in a good greenhouse environment. After 2 weeks of sowing, the test plants were treated in the 2 leaf stage. The tested compounds of the present invention were respectively dissolved in acetone, then added with Tween 80 and 1.5 liter/ha of emulsifiable concentrate of methyl oleate as synergist, diluted with a certain amount of water to obtain a solution with a certain concentration, and sprayed with a spray tower onto the plants. After the application, the plants were cultured for 15 days in the greenhouse, and then the experimental results of the weeding were counted. The doses of the used compounds were 500, 250, 125, 60, 30, 15 g/ha, and the averages were obtained by repeating for three times.

Digitaria sanguinalis = tested on: Digitaria sanguinalis
Source text: as §1, §2, §3

Echinochloa crusgali = tested on: Echinochloa crusgali
Source text: as §1, §2, §3

Row | SMILES | weeding effect in post-emergence stage, activity level (growth control rate), Amaranthus retroflexus (Amaranthus retroflexus) | weeding effect in post-emergence stage, activity level (growth control rate), Digitaria sanguinalis (Digitaria sanguinalis) | weeding effect in post-emergence stage, activity level (growth control rate), Echinochloa crusgali (Echinochloa crusgali)
1 | Cc1c(C(=O)Nc2nnnn2C)ccc(S(C)(=O)=O)c1[S@+]([O-])CC(C)O (stereo partly shown) [Compound 620] | 5 (Level 5: growth control rate is above 85%) | 5 (Level 5: growth control rate is above 85%) | 5 (Level 5: growth control rate is above 85%)
2 | CSc1c(C(=O)Nc2nnnn2C)ccc(C(F)(F)F)c1[S@+]([O-])CCF [Compound 596] | 5 (Level 5: growth control rate is above 85%) | 5 (Level 5: growth control rate is above 85%) | 5 (Level 5: growth control rate is above 85%)
3 | Cc1c(C(=O)Nc2nnnn2C)ccc(S(C)(=O)=O)c1[S@+]([O-])CCCC(F)(F)F [Compound 601] | 5 (Level 5: growth control rate is above 85%) | 5 (Level 5: growth control rate is above 85%) | 5 (Level 5: growth control rate is above 85%)
4 | Cc1nnc(NC(=O)c2ccc(S(C)(=O)=O)c([S@+]([O-])CCC(C)(C)C)c2C)o1 [Compound 602] | 5 (Level 5: growth control rate is above 85%) | 5 (Level 5: growth control rate is above 85%) | 5 (Level 5: growth control rate is above 85%)
5 | CC(=O)C[S@@+]([O-])c1c(S(C)(=O)=O)ccc(C(=O)Nc2nnnn2C)c1C [Compound 609] | 5 (Level 5: growth control rate is above 85%) | 5 (Level 5: growth control rate is above 85%) | 5 (Level 5: growth control rate is above 85%)
6 | C=CCC[S@@+]([O-])c1c(S(C)(=O)=O)ccc(C(=O)Nc2nnnn2C)c1C [Compound 619] | 5 (Level 5: growth control rate is above 85%) | 5 (Level 5: growth control rate is above 85%) | 5 (Level 5: growth control rate is above 85%)
7 | CSCCC[S@@+]([O-])c1c(C(F)(F)F)ccc(C(=O)Nc2nnc(C)o2)c1F [Compound 598] | 5 (Level 5: growth control rate is above 85%) | 5 (Level 5: growth control rate is above 85%) | 5 (Level 5: growth control rate is above 85%)
8 | CSCCC[S@@+]([O-])c1c(C(F)(F)F)ccc(C(=O)Nc2nnc(C)o2)c1SC [Compound 599] | 5 (Level 5: growth control rate is above 85%) | 5 (Level 5: growth control rate is above 85%) | 5 (Level 5: growth control rate is above 85%)
9 | CC[S@@+]([O-])c1c(S(C)(=O)=O)ccc(C(=O)Nc2nnnn2CCOC)c1C [Compound 622] | 5 (Level 5: growth control rate is above 85%) | 5 (Level 5: growth control rate is above 85%) | 5 (Level 5: growth control rate is above 85%)
10 | CCn1nnnc1NC(=O)c1ccc(S(C)(=O)=O)c([S@+]([O-])CC)c1C [Compound 629] | 5 (Level 5: growth control rate is above 85%) | 5 (Level 5: growth control rate is above 85%) | 5 (Level 5: growth control rate is above 85%)
11 | Cc1c(C(=O)Nc2nnnn2C)ccc(S(C)(=O)=O)c1[S@+]([O-])CC(=O)N(C)C [Compound 606] | 5 (Level 5: growth control rate is above 85%) | 5 (Level 5: growth control rate is above 85%) | 5 (Level 5: growth control rate is above 85%)
12 | CC[S@@+]([O-])c1c(C(F)(F)F)ccc(C(=O)Nc2nocc2C)c1OC [Compound 458] | 5 (Level 5: growth control rate is above 85%) |  | 5 (Level 5: growth control rate is above 85%)
13 | Cc1nnc(NC(=O)c2ccc(C)c([S@+]([O-])C(C)C)c2C)o1 [Compound 483] | 5 (Level 5: growth control rate is above 85%) |  | 5 (Level 5: growth control rate is above 85%)
14 | Cc1nnc(NC(=O)c2ccc(S(C)(=O)=O)c([S@+]([O-])C(C)C)c2C)o1 [Compound 493] | 5 (Level 5: growth control rate is above 85%) |  | 5 (Level 5: growth control rate is above 85%)
15 | Cc1nnc(NC(=O)c2ccc(C(F)(F)F)c([S@+]([O-])CCC=O)c2F)o1 [Compound 192] | 5 (Level 5: growth control rate is above 85%) |  | 5 (Level 5: growth control rate is above 85%)
16 | Cc1ccc(C(=O)Nc2nnnn2C)c(C)c1[S@+]([O-])CC(F)(F)F [Compound 478] | 5 (Level 5: growth control rate is above 85%) |  | 5 (Level 5: growth control rate is above 85%)
17 | Cc1nnc(NC(=O)c2ccc(C(F)(F)F)c([S@@+]([O-])C(=O)c3ccco3)c2F)o1 [Compound 171] | 5 (Level 5: growth control rate is above 85%) |  | 5 (Level 5: growth control rate is above 85%)
18 | Cc1nnc(NC(=O)c2ccc(S(C)(=O)=O)c([S@+]([O-])CCF)c2C)o1 [Compound 499] | 5 (Level 5: growth control rate is above 85%) |  | 5 (Level 5: growth control rate is above 85%)
19 | Cc1nnc(NC(=O)c2ccc(C(F)(F)F)c([S@+]([O-])CCC3CCCCC3)c2F)o1 [Compound 18] | 5 (Level 5: growth control rate is above 85%) |  | 5 (Level 5: growth control rate is above 85%)
20 | C#CCN(C(=O)c1ccc(C(F)(F)F)c([S@+]([O-])CC)c1F)c1nnc(C)o1 [Compound 214] | 5 (Level 5: growth control rate is above 85%) |  | 5 (Level 5: growth control rate is above 85%)
21 | CC[S@@+]([O-])c1c(C(F)(F)F)ccc(C(=O)Nc2ccon2)c1OC [Compound 457] | 5 (Level 5: growth control rate is above 85%) |  | 5 (Level 5: growth control rate is above 85%)
22 | Cc1nnc(NC(=O)c2ccc(C(F)(F)F)c([S@+]([O-])CC(=O)N(C)C)c2F)o1 [Compound 178] | 5 (Level 5: growth control rate is above 85%) |  | 5 (Level 5: growth control rate is above 85%)
23 | Cc1nnc(NC(=O)c2ccc(C(F)(F)F)c([S+]([O-])[Si](C)(C)C)c2F)o1 (stereo not shown) [Compound 206] | 5 (Level 5: growth control rate is above 85%) |  | 5 (Level 5: growth control rate is above 85%)
24 | Cc1ccc(C(=O)Nc2nnnn2C)c(C)c1[S@+]([O-])CC(C)C [Compound 477] | 5 (Level 5: growth control rate is above 85%) |  | 5 (Level 5: growth control rate is above 85%)
25 | Cc1nnc(NC(=O)c2ccc(C)c([S@+]([O-])CC(F)(F)F)c2C)o1 [Compound 485] | 5 (Level 5: growth control rate is above 85%) |  | 5 (Level 5: growth control rate is above 85%)
